# Source: paper PMC8413292, “Small-molecule polymerase inhibitor protects non-human primates from measles and reduces shedding” (Nature Communications, 2021)
# Values joined by “and” are separate entries in the source; they are usually repeats but may differ in a detail not shown here. Equal entries are not always repeated.
# Tested on: MV/FrankfurtMain.DEU/17.11 (genotype D8)
# Assay: White blood cell counts from whole blood
# Assay type: in vivo, squirrel monkeys (Saimiri sciureus)
# Settings: for Cells/ml, white blood cells / Counted Cells (Total), white blood cells / Cells [10^3/mm^3], white blood cells: individual animals
# Experimental: White blood cell counts, viral load quantification in PBMCs, and quantification of neutralizing antibody titers were performed as follows: for white blood cell counts, blood was diluted 1:100 in 3% acetic acid and cells were counted using a Neubauer chamber. For viral load quantification in PBMCs, blood was centrifuged at 3000 rpm for 15 min and serum was frozen at −20 °C until further use. Red blood cell lysis was performed and the remaining PBMCs were counted using a Neubauer chamber. Viral titers in PBMCs were quantified in quadruplicates using limited dilution method and calculated as TCID50/10^6 PBMCs. Neutralizing antibody titers were quantified by incubating MeV with 2-fold serial dilutions of the respective serum for 20 min at room temperature in quadruplicates. Vero/hSLAM cells were added and incubated for 3 days at 37 °C. Neutralizing antibody titers are expressed as the reciprocal of the highest serum dilution showing no signs of infection. For virus titration from throat swabs, swabs were placed in 150 μl DMEM with 3% penicillin/streptomycin and the titer was quantified by limited dilution method.
structure (smiles),measurement,setting,value
Cn1nc(C(F)(F)F)cc1C(=O)Nc1ccc(S(=O)(=O)N2CCCC[C@H]2CCN2CCOCC2)cc1 [ERDRP-0519],"Cells/ml, white blood cells","prophylactic group, 21 dpi",3.50E+06 Cells/ml and 7.75E+06 Cells/ml and 2.25E+06 Cells/ml (2×) and 5.00E+06 Cells/ml and 5.25E+06 Cells/ml
same,"Counted Cells (Total), white blood cells","prophylactic group, 21 dpi",21 and 14 and 31 and 9 (2×) and 20
same,WBC group mean (Mean 2),"prophylactic group, Row 1 (0 dpi)",6.11 10^3cells/mm^3
same,WBC group mean (Mean 2),"prophylactic group, Row 2 (3 dpi)",4.958 10^3cells/mm^3
same,WBC group mean (Mean 2),"prophylactic group, Row 3 (7 dpi)",5.875 10^3cells/mm^3
same,WBC group mean (Mean 2),"prophylactic group, Row 4 (10 dpi)",4.125 10^3cells/mm^3
same,WBC group mean (Mean 2),"prophylactic group, Row 5 (14 dpi)",4.25 10^3cells/mm^3
same,WBC group mean (Mean 2),"prophylactic group, Row 6 (17 dpi)",4.583 10^3cells/mm^3
same,WBC group mean (Mean 2),"prophylactic group, Row 7 (21 dpi)",4.333 10^3cells/mm^3
same,"Cells [10^3/mm^3], white blood cells","therapeutic (d3) group, 0 dpi",4.25 10^3/mm^3 and 7.75 10^3/mm^3 and 4.75 10^3/mm^3 and 5.75 10^3/mm^3 and 5 10^3/mm^3
same,"Cells/ml, white blood cells","therapeutic (d3) group, 0 dpi",7.75E+06 Cells/ml and 4.75E+06 Cells/ml and 5.75E+06 Cells/ml and 5.00E+06 Cells/ml and 4.25E+06 Cells/ml
same,"Counted Cells (Total), white blood cells","therapeutic (d3) group, 0 dpi",17 and 31 and 19 and 23 and 20
same,"Cells [10^3/mm^3], white blood cells","therapeutic (d3) group, 3 dpi",8.75 10^3/mm^3 and 8.25 10^3/mm^3 (2×) and 6.5 10^3/mm^3 and 5 10^3/mm^3 and 4.5 10^3/mm^3
same,"Cells/ml, white blood cells","therapeutic (d3) group, 3 dpi",8.25E+06 Cells/ml (2×) and 6.50E+06 Cells/ml and 5.00E+06 Cells/ml and 4.50E+06 Cells/ml and 8.75E+06 Cells/ml
same,"Counted Cells (Total), white blood cells","therapeutic (d3) group, 3 dpi",35 and 33 (2×) and 26 and 20 and 18
same,"Cells [10^3/mm^3], white blood cells","therapeutic (d3) group, 7 dpi",3.25 10^3/mm^3 and 8.25 10^3/mm^3 and 4.75 10^3/mm^3 and 3.75 10^3/mm^3 and 7.25 10^3/mm^3 and 2.25 10^3/mm^3
same,"Cells/ml, white blood cells","therapeutic (d3) group, 7 dpi",8.25E+06 Cells/ml and 4.75E+06 Cells/ml and 3.75E+06 Cells/ml and 7.25E+06 Cells/ml and 2.25E+06 Cells/ml and 3.25E+06 Cells/ml
same,"Counted Cells (Total), white blood cells","therapeutic (d3) group, 7 dpi",13 and 33 and 19 and 15 and 29 and 9
same,"Cells [10^3/mm^3], white blood cells","therapeutic (d3) group, 10 dpi",1.75 10^3/mm^3 and 2.75 10^3/mm^3 and 3 10^3/mm^3 and 3.75 10^3/mm^3 and 4.5 10^3/mm^3 and 4.25 10^3/mm^3
same,"Cells/ml, white blood cells","therapeutic (d3) group, 10 dpi",2.75E+06 Cells/ml and 3.00E+06 Cells/ml and 3.75E+06 Cells/ml and 4.50E+06 Cells/ml and 4.25E+06 Cells/ml and 1.75E+06 Cells/ml
same,"Counted Cells (Total), white blood cells","therapeutic (d3) group, 10 dpi",7 and 11 and 12 and 15 and 18 and 17
same,"Cells [10^3/mm^3], white blood cells","therapeutic (d3) group, 14 dpi",6 10^3/mm^3 and 7.5 10^3/mm^3 and 5.5 10^3/mm^3 and 10.75 10^3/mm^3 and 12.75 10^3/mm^3 and 3.25 10^3/mm^3
same,"Cells/ml, white blood cells","therapeutic (d3) group, 14 dpi",7.50E+06 Cells/ml and 5.50E+06 Cells/ml and 1.08E+07 Cells/ml and 1.28E+07 Cells/ml and 3.25E+06 Cells/ml and 6.00E+06 Cells/ml
same,"Counted Cells (Total), white blood cells","therapeutic (d3) group, 14 dpi",24 and 30 and 22 and 43 and 51 and 13
same,"Cells [10^3/mm^3], white blood cells","therapeutic (d3) group, 17 dpi",4.25 10^3/mm^3 and 5 10^3/mm^3 and 4.75 10^3/mm^3 and 4.5 10^3/mm^3 and 3.75 10^3/mm^3
same,"Cells/ml, white blood cells","therapeutic (d3) group, 17 dpi",5.00E+06 Cells/ml and 4.75E+06 Cells/ml and 4.50E+06 Cells/ml and 3.75E+06 Cells/ml and 4.25E+06 Cells/ml
same,"Counted Cells (Total), white blood cells","therapeutic (d3) group, 17 dpi",17 and 20 and 19 and 18 and 15
same,"Cells [10^3/mm^3], white blood cells","therapeutic (d3) group, 21 dpi",4.5 10^3/mm^3 and 3.5 10^3/mm^3 and 10.25 10^3/mm^3 and 7.5 10^3/mm^3 and 2.25 10^3/mm^3
same,"Cells/ml, white blood cells","therapeutic (d3) group, 21 dpi",3.50E+06 Cells/ml and 1.02E+07 Cells/ml and 7.50E+06 Cells/ml and 2.25E+06 Cells/ml and 4.50E+06 Cells/ml
same,"Counted Cells (Total), white blood cells","therapeutic (d3) group, 21 dpi",18 and 14 and 41 and 30 and 9
same,WBC group mean (Mean 2),"therapeutic (d3) group, Row 1 (0 dpi)",5.5 10^3cells/mm^3
same,WBC group mean (Mean 2),"therapeutic (d3) group, Row 2 (3 dpi)",6.875 10^3cells/mm^3
same,WBC group mean (Mean 2),"therapeutic (d3) group, Row 3 (7 dpi)",4.917 10^3cells/mm^3
same,WBC group mean (Mean 2),"therapeutic (d3) group, Row 4 (10 dpi)",3.333 10^3cells/mm^3
same,WBC group mean (Mean 2),"therapeutic (d3) group, Row 5 (14 dpi)",7.642 10^3cells/mm^3
same,WBC group mean (Mean 2),"therapeutic (d3) group, Row 6 (17 dpi)",4.45 10^3cells/mm^3
same,WBC group mean (Mean 2),"therapeutic (d3) group, Row 7 (21 dpi)",5.61 10^3cells/mm^3
same,"Cells [10^3/mm^3], white blood cells","therapeutic (d7) group, 0 dpi",2.75 10^3/mm^3 and 3 10^3/mm^3 (2×) and 7.25 10^3/mm^3 and 5.25 10^3/mm^3
same,"Cells/ml, white blood cells","therapeutic (d7) group, 0 dpi",3.00E+06 Cells/ml (2×) and 7.25E+06 Cells/ml and 5.25E+06 Cells/ml and 2.75E+06 Cells/ml
same,"Counted Cells (Total), white blood cells","therapeutic (d7) group, 0 dpi",11 and 12 (2×) and 29 and 21
same,"Cells [10^3/mm^3], white blood cells","therapeutic (d7) group, 3 dpi",7.5 10^3/mm^3 and 12.5 10^3/mm^3 and 6.5 10^3/mm^3 and 7.75 10^3/mm^3 (2×) and 8.75 10^3/mm^3
same,"Cells/ml, white blood cells","therapeutic (d7) group, 3 dpi",1.25E+07 Cells/ml and 6.50E+06 Cells/ml and 7.75E+06 Cells/ml (2×) and 8.75E+06 Cells/ml and 7.50E+06 Cells/ml
same,"Counted Cells (Total), white blood cells","therapeutic (d7) group, 3 dpi",30 and 50 and 26 and 31 (2×) and 35
same,"Cells [10^3/mm^3], white blood cells","therapeutic (d7) group, 7 dpi",4 10^3/mm^3 (3×) and 5 10^3/mm^3 and 3 10^3/mm^3 and 3.25 10^3/mm^3
same,"Cells/ml, white blood cells","therapeutic (d7) group, 7 dpi",4.00E+06 Cells/ml (3×) and 5.00E+06 Cells/ml and 3.00E+06 Cells/ml and 3.25E+06 Cells/ml
same,"Counted Cells (Total), white blood cells","therapeutic (d7) group, 7 dpi",16 (3×) and 20 and 12 and 13
same,"Cells [10^3/mm^3], white blood cells","therapeutic (d7) group, 10 dpi",3 10^3/mm^3 and 2.75 10^3/mm^3 and 2.5 10^3/mm^3
same,"Cells/ml, white blood cells","therapeutic (d7) group, 10 dpi",2.75E+06 Cells/ml and 2.50E+06 Cells/ml and 3.00E+06 Cells/ml
same,"Counted Cells (Total), white blood cells","therapeutic (d7) group, 10 dpi",12 and 11 and 10
same,WBC group mean (Mean 2),"therapeutic (d7) group, Row 1 (0 dpi)",4.25 10^3cells/mm^3
same,WBC group mean (Mean 2),"therapeutic (d7) group, Row 2 (3 dpi)",8.458 10^3cells/mm^3
same,WBC group mean (Mean 2),"therapeutic (d7) group, Row 3 (7 dpi)",3.875 10^3cells/mm^3
same,WBC group mean (Mean 2),"therapeutic (d7) group, Row 4 (10 dpi)",2.708 10^3cells/mm^3
same,WBC group mean (Mean 2),"therapeutic (d7) group, Row 5 (14 dpi)",3.125 10^3cells/mm^3
same,WBC group mean (Mean 2),"therapeutic (d7) group, Row 6 (17 dpi)",4.25 10^3cells/mm^3
same,WBC group mean (Mean 2),"therapeutic (d7) group, Row 7 (21 dpi)",5.083 10^3cells/mm^3
